From publication PMC10610505, “Synthesis and Biological Evaluation of Some New 3-Aryl-2-thioxo-2,3-dihydroquinazolin-4(1H)-ones and 3-Aryl-2-(benzylthio)quinazolin-4(3H)-ones as Antioxidants; COX-2, LDHA, α-Glucosidase and α-Amylase Inhibitors; and Anti-Colon Carcinoma and Apoptosis-Inducing Agents” (Pharmaceuticals, 2023)

Assays:
[1] = DPPH radical scavenging assay; type: biochemical; details: for Mean IC50 for scavenging initial DPPH radicals: mean ± SD of three replicates; for IC50: mean ± SD, converted from mg/mL, read-out: Mean IC50 for scavenging initial DPPH radicals (converted)
Summary of the method: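 Ethanolic DPPH mixed 1:1 with test compound, BHT as reference antioxidant, incubated 1 h at room temperature in darkness. Residual DPPH absorbance read at 519 nm against a no-compound control; scavenging % = (1 − Acompound/AControl) × 100, from three independent triplicate measurements.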

COX-2 = biological target: T1, COX-2 (Homo sapiens, UniProt P35354); test: COX-2 inhibitory screening assay (Cayman kit); type: biochemical; details: for Increase in COX-2 inhibitory efficiency by duplicating the concentration: % inhibition at 0.200 mg/mL divided by % inhibition at 0.100 mg/mL; for inhibition at 100 µg/mL: at 0.100 mg/mL; for inhibition at 100 µg/mL / inhibition at 200 µg/mL: read-out: COX-2 mean % inhibition ± SD; for inhibition at 200 µg/mL: at 0.200 mg/mL
T1 construct: purchased Cayman Chemical Company 701080
T1 sequence (P35354 18-604): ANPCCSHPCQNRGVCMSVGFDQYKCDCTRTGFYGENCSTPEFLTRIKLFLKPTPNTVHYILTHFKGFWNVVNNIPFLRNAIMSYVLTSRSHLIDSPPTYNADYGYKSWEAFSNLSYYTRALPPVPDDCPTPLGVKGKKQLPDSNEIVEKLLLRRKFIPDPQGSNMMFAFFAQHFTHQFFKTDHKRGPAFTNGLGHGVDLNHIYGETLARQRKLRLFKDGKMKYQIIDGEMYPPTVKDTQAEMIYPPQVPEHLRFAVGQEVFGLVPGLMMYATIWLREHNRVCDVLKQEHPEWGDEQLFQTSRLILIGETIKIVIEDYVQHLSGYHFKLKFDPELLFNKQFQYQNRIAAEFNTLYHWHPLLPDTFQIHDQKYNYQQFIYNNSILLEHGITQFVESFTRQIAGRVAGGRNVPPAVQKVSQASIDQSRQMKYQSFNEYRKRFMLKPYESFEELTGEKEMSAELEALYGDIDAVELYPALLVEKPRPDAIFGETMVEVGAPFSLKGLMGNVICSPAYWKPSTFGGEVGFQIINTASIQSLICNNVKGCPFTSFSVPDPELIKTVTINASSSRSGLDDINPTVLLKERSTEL
Summary of the method: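 Human COX-2 with heme preincubated with compound 10 min at 37° C in Tris-HCl pH 8.0 with phenol and EDTA, then arachidonic acid added for 2 min at 37° C. PGF2α, formed by stannous chloride reduction, quantified by enzyme immunoassay at 410 nm; % inhibition versus untreated control.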

LoVo carcinoma cells = test: Cell cycle assay (PI flow cytometry), LoVo; type: cell-based, human; details: 50 µg/mL, 48 h
Procedure: In the current study, the cell cycle distribution of the treated HCT-116 and LoVo carcinoma cells with compounds 3a and 3f was assessed by labeling the cell’s DNA with PI stain in order to determine if the induction of apoptosis in carcinoma cells could be related to the cell cycle arrest (Figure 8A–F). The intensity of the PI stain is proportional to the cell’s DNA content (Figure 9). […] The ability of the tested compounds (3a and 3f) to block the cell cycle progression in LoVo and HCT-116 cells confirmed their anticancer potential against these colon carcinoma cell lines and could explain the mechanism of the observed cytotoxicity.
Changes in cell cycle distribution induced by compounds 3a and 3f were analyzed using a flow cytometric analysis according to Nicoletti et al. 1991 [108] using a Propidium Iodide Flow Cytometry Kit for Cell Cycle Analysis (Abcam-UK). HCT-116 and LoVo carcinoma cells (5 × 10^4 cells/mL) were treated with DMSO as a negative control, and compounds 3a and 3f (50 µg/mL), for 48 h. After the centrifugation of the treated cells at 1800 rpm for 5 min, the pellet was washed twice with PBS. Then, the cells were fixed by mixing […] of 90% cold ethanol, and stained with propidium iodide (PI) for 1 h at 37 °C. […] The stained cells were analyzed for their DNA content using a BD FACSC flow cytometer.

α-amylase = test: In vitro α-amylase (AA) inhibition assay; details: mean ± SD of three replicates; for IC50: read-out: Mean IC50 α-Amylase (AA)
Procedure: Then, 180 µL of Labtest (the amylase substrate) was added and the samples were incubated for 8 min, followed by measuring the first reaction at 620 nm to obtain (X1). Afterwards, the reaction mixture was incubated for an additional 5 min at 37 °C; then, the second reaction was measured to obtain the final reading (X2). […] The results were expressed as IC50 µg/mL (as well as µM) and were determined from the standard curves.

SMILES	Mean IC50 for scavenging initial DPPH radicals [1]	IC50 [1]	Increase in COX-2 inhibitory efficiency by duplicating the concentration (COX-2)	inhibition at 100 µg/mL (COX-2)	inhibition at 200 µg/mL (COX-2)	IC50 (COX-2; mean ± SD of three replicates)	Cells in G2/M phase (%DIP G2/M) (LoVo carcinoma cells)	Mean IC50 α-Amylase (AA) (α-amylase)	IC50 (α-amylase)
O=c1c2cc(Cl)ccc2[nH]c(=S)n1-c1cccc(C(F)(F)F)c1 [Compound 3a, 6-Chloro-2-thioxo-3-(3-trifluoromethyl-phenyl)-2,3-dihydro-1H-quinazolin-4-one]	68 ± 4 µg/mL	191 µM	1.70 fold	57 ± 2.83%	97 ± 1.34%	281 µM	22.64%	124.333 ± 4.042 µg/mL	349 µM
O=c1c2cc(Cl)ccc2[nH]c(=S)n1-c1ccc([N+](=O)[O-])cc1 [Compound 3f, 6-Chloro-3-(4-nitro-phenyl)-2-thioxo-2,3-dihydro-1H-quinazolin-4-one]	227 ± 10 µg/mL	680 µM	2.34 fold	11.4 ± 0.778%	26.8 ± 3.89%	–	29.16%	111.667 ± 3.512 µg/mL	335 µM
